# From the supplement of paper PMC10307832
# Compound: CC(C)CCN1c2nc(Nc3cc(F)c(O)c(F)c3)ncc2N(C)C(=O)C1C [BI-D1870] + C[C@@H](Oc1cc(-c2cnn(C3CCNCC3)c2)cnc1N)c1c(Cl)ccc(F)c1Cl [Crizotinib] (partner 1 µM)
# Test: relative viability (nuclei count vs DMSO), 5 days (fraction); higher = more cells survive
# Conditions: first compound 4 µM
# How it was run: (§1)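 Medians of duplicate plates are given as relative viability. That measure is the nuclei count in treated wells divided by the count in vehicle wells. Counts were taken on 4× images of lung cancer cell lines in 1536-well plates, 5 days after pin-tool dosing the day after seeding with one drug alone or a fixed anchor-drug dose plus five library-drug doses (not always all listed) in √10 steps.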
row,Cell Line,relative viability
1,EKVX,0.816

# Compound: O=c1ncccn1[C@@H]1O[C@H](CO)[C@@H](O)[C@H]1O [Zebularine] + COc1cccc2cc(-c3nc([C@H]4CC[C@H](C(=O)O)CC4)n4ncnc(N)c34)[nH]c12 [OSI-027] (partner 0.5 µM)
# Test: as above
# Conditions: first compound 1 µM
# How it was run: as §1
row,Cell Line,relative viability
1,LU99A,0.314
2,BEN,0.544
3,HARA,0.367
4,HCC-78,0.394
5,NCI-H322M,0.524
6,LCLC-97TM1,0.572
7,NCI-H2009,0.687
8,A-427,0.51
9,NCI-H661,0.794
10,NCI-H1734,0.672
11,NCI-H460,0.971
12,NCI-H2347,0.444
13,SK-LU-1,0.369
14,201T,0.602
15,NCI-H1915,0.672
16,HCC-827,1.06

row,Cell Line,relative viability
1,LXF-289,0.827
2,NCI-H23,0.674
3,NCI-H647,0.717
4,CAL-12T,0.816
5,NCI-H1651,0.735
6,EPLC-272H,0.279
7,NCI-H2228,0.604
8,NCI-H1792,0.67
9,NCI-H1355,0.435
10,NCI-H3122,1.24
11,NCI-H1437,0.926
12,NCI-H1755,0.801
13,NCI-H2023,0.471
14,HCC-15,0.85
15,PC-14,0.778
16,EKVX,0.679

# Same assay, conditions: first compound 3.162 µM
row,Cell Line,relative viability
1,LU99A,0.278
2,BEN,0.29
3,HCC-78,0.381
4,NCI-H322M,0.531
5,LCLC-97TM1,0.533
6,NCI-H2009,0.607
7,A-427,0.403
8,NCI-H661,0.671
9,NCI-H1734,0.556
10,NCI-H460,0.707
11,NCI-H2347,0.412
12,SK-LU-1,0.359
13,201T,0.691
14,NCI-H1915,0.548
15,HCC-827,0.779
16,LXF-289,0.69

row,Cell Line,relative viability
1,NCI-H23,0.55
2,NCI-H647,0.676
3,CAL-12T,0.552
4,NCI-H1651,0.69
5,EPLC-272H,0.213
6,NCI-H2228,0.514
7,NCI-H1792,0.668
8,NCI-H1355,0.388
9,NCI-H3122,1.03
10,NCI-H1437,0.933
11,NCI-H1755,0.732
12,NCI-H2023,0.437
13,HCC-15,0.587
14,PC-14,0.437
15,EKVX,0.644

# Same assay, conditions: first compound 10 µM
row,Cell Line,relative viability
1,LU99A,0.284
2,BEN,0.279
3,HCC-78,0.305
4,NCI-H322M,0.47
5,LCLC-97TM1,0.258
6,NCI-H2009,0.508
7,A-427,0.347
8,NCI-H661,0.591
9,NCI-H1734,0.488
10,NCI-H460,0.336
11,NCI-H2347,0.443
12,SK-LU-1,0.31
13,201T,0.517
14,HCC-827,0.675
15,LXF-289,0.626
16,NCI-H23,0.368
17,NCI-H647,0.363
18,CAL-12T,0.387
19,NCI-H1651,0.549
20,EPLC-272H,0.312
21,NCI-H2228,0.284
22,NCI-H1792,0.318
23,NCI-H1355,0.357
24,NCI-H3122,0.603
25,NCI-H1437,0.761
26,NCI-H1755,0.631
27,NCI-H2023,0.314
28,HCC-15,0.457
29,PC-14,0.146
30,EKVX,0.617

# Same assay, conditions: first compound 31.62 µM
row,Cell Line,relative viability
1,LU99A,0.294
2,BEN,0.24
3,HARA,0.42
4,HCC-78,0.366
5,NCI-H322M,0.5
6,LCLC-97TM1,0.198
7,NCI-H2009,0.515
8,A-427,0.344
9,NCI-H661,0.764
10,NCI-H1734,0.425
11,NCI-H460,0.18
12,NCI-H2347,0.424
13,SK-LU-1,0.291
14,201T,0.592
15,NCI-H1915,0.622
16,HCC-827,0.609

row,Cell Line,relative viability
1,LXF-289,0.564
2,NCI-H23,0.628
3,NCI-H647,0.186
4,CAL-12T,0.688
5,NCI-H1651,0.716
6,EPLC-272H,0.324
7,NCI-H2228,0.607
8,NCI-H1792,0.384
9,NCI-H1355,0.494
10,NCI-H3122,1.03
11,NCI-H1437,0.859
12,NCI-H1755,0.85
13,NCI-H2023,0.457
14,HCC-15,0.537
15,PC-14,0.121
16,EKVX,0.749

# Same assay, conditions: first compound 100 µM
row,Cell Line,relative viability
1,LU99A,0.216
2,BEN,0.272
3,HARA,0.245
4,HCC-78,0.401
5,NCI-H322M,0.521
6,LCLC-97TM1,0.213
7,NCI-H2009,0.366
8,A-427,0.268
9,NCI-H661,0.627
10,NCI-H1734,0.317
11,NCI-H460,0.0887
12,NCI-H2347,0.393
13,SK-LU-1,0.302
14,201T,0.378
15,NCI-H1915,0.486
16,HCC-827,0.366

row,Cell Line,relative viability
1,LXF-289,0.329
2,NCI-H23,0.518
3,NCI-H647,0.16
4,CAL-12T,0.542
5,NCI-H1651,0.447
6,EPLC-272H,0.27
7,NCI-H2228,0.275
8,NCI-H1792,0.366
9,NCI-H1355,0.381
10,NCI-H3122,0.755
11,NCI-H1437,0.611
12,NCI-H1755,0.566
13,NCI-H2023,0.302
14,HCC-15,0.27
15,PC-14,0.0877
16,EKVX,0.695

# Compound: CC(C)CCN1c2nc(Nc3cc(F)c(O)c(F)c3)ncc2N(C)C(=O)C1C [BI-D1870] + CS(=O)(=O)CCNCc1ccc(-c2ccc3ncnc(Nc4ccc(OCc5cccc(F)c5)c(Cl)c4)c3c2)o1 [Lapatinib] (partner 2 µM)
# Test: as above
# Conditions: first compound 0.04 µM
# How it was run: as §1
row,Cell Line,relative viability
1,LU99A,1.11
